Data reported in ChEMBL document CHEMBL1201862, “PubChem BioAssay data set” (2004).
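Results reflect a 48-hour exposure of cells in 96-well plates to compound at five concentrations. At the GI50, growth is halved.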 The source made the active and inactive calls. No stated cut-off is given here; in the data, active = GI50 up to about 1.1 µM and inactive = higher.

Tests used:
Experiment in all cases: growth of human tumour cells (NCI), 48 h
A549 = tested on: A549
LOX IMVI = tested on: LOX IMVI
SK-MEL-5 = tested on: SK-MEL-5
NCI-H522 = tested on: NCI-H522
OVCAR-8 = tested on: OVCAR-8
SW-620 = tested on: SW-620
CCRF-CEM = tested on: CCRF-CEM
RXF 393 = tested on: RXF 393
CAKI-1 = tested on: CAKI-1
786-0 = tested on: 786-0
TK-10 = tested on: TK-10
KM12 = tested on: KM12
MDA-MB-231 = tested on: MDA-MB-231
HOP-92 = tested on: HOP-92
ACHN = tested on: ACHN
T47D = tested on: T47D
U-251 = tested on: U-251
UO-31 = tested on: UO-31
M14 = tested on: M14
NCI-H226 = tested on: NCI-H226

Row | SMILES | GI50 (A549) | GI50 (LOX IMVI) | GI50 (SK-MEL-5) | GI50 (NCI-H522) | GI50 (OVCAR-8) | GI50 (SW-620) | GI50 (CCRF-CEM) | GI50 (RXF 393) | GI50 (CAKI-1) | GI50 (786-0) | GI50 (TK-10) | GI50 (KM12) | GI50 (MDA-MB-231) | GI50 (HOP-92) | GI50 (ACHN) | GI50 (T47D) | GI50 (U-251) | GI50 (UO-31) | GI50 (M14) | GI50 (NCI-H226)
1 | CN(C)c1ccc(/C=c2/c3ccccc3n3c2cc(NC(=O)NCCC[N+](C)(C)C)[n+]3C)cc1 | > 100 µM (inactive) | 61.2 µM (inactive) | 47.6 µM (inactive) | 29.4 µM (inactive) | 38.9 µM (inactive) | > 100 µM (inactive) | 0.452 µM (active) | > 100 µM (inactive) | > 100 µM (inactive) | > 100 µM (inactive) | > 100 µM (inactive) | > 100 µM (inactive) | > 100 µM (inactive) | 30.6 µM (inactive) | > 100 µM (inactive) | 6.41 µM (inactive) | 50 µM (inactive) | > 100 µM (inactive) | 72.8 µM (inactive) | –
2 | O=C(Nc1cccc2cnccc12)c1cc2c(cc1Cl)Sc1nccn1S2(=O)=O | 27.7 µM (inactive) | 5.65 µM (inactive) | 12.1 µM (inactive) | 13.1 µM (inactive) | 10.3 µM (inactive) | 15.5 µM (inactive) | – | 8.2 µM (inactive) | 25.8 µM (inactive) | 10.9 µM (inactive) | 24.4 µM (inactive) | 4.66 µM (inactive) | 14.9 µM (inactive) | 21.4 µM (inactive) | 28.3 µM (inactive) | 6 µM (inactive) | 10.4 µM (inactive) | 18.6 µM (inactive) | > 100 µM (inactive) | 18.4 µM (inactive)
3 | CCON1CC(C(=O)OC)=C(O)C1=O | > 100 µM (inactive) | – | > 100 µM (inactive) | > 100 µM (inactive) | > 100 µM (inactive) | > 100 µM (inactive) | – | > 100 µM (inactive) | > 100 µM (inactive) | > 100 µM (inactive) | > 100 µM (inactive) | > 100 µM (inactive) | > 100 µM (inactive) | > 100 µM (inactive) | > 100 µM (inactive) | > 100 µM (inactive) | > 100 µM (inactive) | > 100 µM (inactive) | > 100 µM (inactive) | –
4 | CCOC(=O)c1c(N)nn2c1cc1cccccc12 | 36.8 µM (inactive) | 25.1 µM (inactive) | 26.1 µM (inactive) | 20.1 µM (inactive) | 24.8 µM (inactive) | 32.5 µM (inactive) | 43.5 µM (inactive) | 6.14 µM (inactive) | 27.9 µM (inactive) | 34.4 µM (inactive) | 19.5 µM (inactive) | 20.8 µM (inactive) | 43 µM (inactive) | 33.5 µM (inactive) | 27.9 µM (inactive) | 22.6 µM (inactive) | 24 µM (inactive) | – | 42.1 µM (inactive) | –
5 | CCOC(=O)C(NC(=O)c1ccco1)(Nc1nc2ccc(OCC)cc2s1)C(F)(F)F (stereo not drawn) | 28.8 µM (inactive) | – | 19.4 µM (inactive) | 21.2 µM (inactive) | 43.9 µM (inactive) | 61.5 µM (inactive) | 23.8 µM (inactive) | 7.82 µM (inactive) | 17.3 µM (inactive) | 21.7 µM (inactive) | 50.1 µM (inactive) | 21.8 µM (inactive) | 55.3 µM (inactive) | 15 µM (inactive) | 26.8 µM (inactive) | 26.9 µM (inactive) | 35.2 µM (inactive) | 4.22 µM (inactive) | 32.6 µM (inactive) | 35.1 µM (inactive)
6 | C/C=C\C(CC(=O)NCC(=O)c1c[nH]c2ccccc12)CC(=O)OC (stereo not drawn) | > 100 µM (inactive) | – | > 100 µM (inactive) | > 100 µM (inactive) | > 100 µM (inactive) | > 100 µM (inactive) | 75.2 µM (inactive) | > 100 µM (inactive) | > 100 µM (inactive) | > 100 µM (inactive) | > 100 µM (inactive) | > 100 µM (inactive) | > 100 µM (inactive) | > 100 µM (inactive) | > 100 µM (inactive) | > 100 µM (inactive) | > 100 µM (inactive) | > 100 µM (inactive) | > 100 µM (inactive) | –
7 | C/C(=N\NC(=S)NCCNC(=S)N/N=C(\C)c1ccccn1)c1ccccn1 | 3.21 µM (inactive) | 1.89 µM (inactive) | 1.74 µM (inactive) | 6.04 µM (inactive) | 1.56 µM (inactive) | 5.04 µM (inactive) | 1.28 µM (inactive) | 3.16 µM (inactive) | 3.42 µM (inactive) | 1.26 µM (inactive) | 1.04 µM (active) | 3.87 µM (inactive) | > 20.9 µM (inactive) | 3.91 µM (inactive) | 1.26 µM (inactive) | 4.43 µM (inactive) | 2.43 µM (inactive) | 1.43 µM (inactive) | 1.5 µM (inactive) | –
8 | c1ccc(NCCSc2nc3ccccc3s2)cc1 | 37.7 µM (inactive) | 45.5 µM (inactive) | 21.5 µM (inactive) | 37.2 µM (inactive) | 79.1 µM (inactive) | 58.3 µM (inactive) | 14.8 µM (inactive) | 55.7 µM (inactive) | 93.1 µM (inactive) | 37.6 µM (inactive) | 23.6 µM (inactive) | 30.9 µM (inactive) | 29.4 µM (inactive) | 41.1 µM (inactive) | 43.8 µM (inactive) | 36.2 µM (inactive) | 52.8 µM (inactive) | 35 µM (inactive) | 44.7 µM (inactive) | –
9 | O=C1C(Cl)=C(NCCN2CCOCC2)C(=O)c2ncccc21 | 2 µM (inactive) | 1.01 µM (active) | 0.723 µM (active) | – | 1.53 µM (inactive) | 1.85 µM (inactive) | 0.394 µM (active) | 1.95 µM (inactive) | – | 1.44 µM (inactive) | 1.96 µM (inactive) | 1.73 µM (inactive) | 2.08 µM (inactive) | 2.25 µM (inactive) | 2.82 µM (inactive) | 2.45 µM (inactive) | 1.66 µM (inactive) | 1.65 µM (inactive) | 1.61 µM (inactive) | 2.1 µM (inactive)
10 | CC(=O)c1c(-c2ccc(Cl)cc2)c(C#N)c(=S)n(C2OC(CO)C(O)C(O)C2O)c1C (stereo not drawn) | 71 µM (inactive) | 30.1 µM (inactive) | 37.2 µM (inactive) | 32.3 µM (inactive) | > 100 µM (inactive) | – | 25.9 µM (inactive) | 98.2 µM (inactive) | – | 63.2 µM (inactive) | 70.6 µM (inactive) | 40.4 µM (inactive) | 37 µM (inactive) | 13.1 µM (inactive) | 42.3 µM (inactive) | 49.3 µM (inactive) | 36.8 µM (inactive) | 1.44 µM (inactive) | 57.7 µM (inactive) | 58.3 µM (inactive)
11 | CN(C(=O)Cc1cccc(N=C=S)c1)[C@H]1CCCC[C@@H]1N1CCCC1 | 16.4 µM (inactive) | 14.5 µM (inactive) | 5.73 µM (inactive) | 12.9 µM (inactive) | 16.2 µM (inactive) | 11.6 µM (inactive) | 12.5 µM (inactive) | 12.9 µM (inactive) | 15.4 µM (inactive) | 15.1 µM (inactive) | 11.9 µM (inactive) | 17.9 µM (inactive) | 16.9 µM (inactive) | 13.8 µM (inactive) | 14.1 µM (inactive) | 11.4 µM (inactive) | 17.1 µM (inactive) | 14.7 µM (inactive) | 17.8 µM (inactive) | –
